According to publication PMC12921483 (Frontiers in Pharmacology, 2026):
Where two headings read alike, the source gives them in different places.

What was measured:
Format in all cases: cell-based
[1] = test system: HeLa; experiment: CCK-8 antiproliferative assay, HeLa
Method: (§1) Cells were seeded into 96-well plates at a density of 2.5–6 × 10^3 cells per well and incubated for 24 h. They were then treated with a series of eight concentrations of the test compounds (e.g., from 100 to 0.78125 μM or from 2 to 0.015625 μM, prepared by twofold serial dilution) for 48 h. After treatment, the medium was removed and replaced with 100 μL of 10% CCK-8 solution (diluted in fresh medium). Following incubation in the dark for 1–2 h, absorbance at 450 nm was measured using a microplate reader. The half-maximal inhibitory concentration (IC50) was calculated using SPSS software. Each concentration was tested in six replicate wells, and the entire experiment was performed in three independent biological replicates.
(§2) IC50 values were derived by nonlinear regression (SPSS 26). All data are presented as mean ± SD from at least three independent biological replicates (n ≥ 3). Differences were assessed by Student’s t-test (two groups) or one-way ANOVA with Tukey’s post hoc test (multiple groups). […] Statistical significance was set at p < 0.05.

[2] = test system: SiHa; experiment: CCK-8 antiproliferative assay, SiHa; conditions: read-out: IC50 SiHa
Method: as §1, §2

[3] = test system: H8; experiment: CCK-8 cytotoxicity, normal cervical epithelial cells H8; conditions: for IC50: read-out: IC50 H8; for toxicity to H8 cells in words: normal cervical epithelial cells
Method: as §1, §2

[4] = test system: C-33A; experiment: CCK-8 antiproliferative assay, C-33A; conditions: read-out: IC50 C-33A
Method: as §1, §2

[5] = test system: SLC7A11; experiment: Western blot, SLC7A11 expression in HeLa cells; conditions: Fer-1 5 μmol/L cotreated with B1, HeLa
[6] = test system: HeLa cells; experiment: MDA assay kit; conditions: Fer-1 5 μmol/L cotreated with 0.22 μmol/L B1, HeLa
Method: MDA levels in HeLa cells were detected using an MDA assay kit ([Tsikas et al., 2017]).
After 24 h of treatment, cells were collected and washed twice with PBS for subsequent analysis.

[7] = test system: HeLa cells; experiment: GSH assay kit; conditions: Fer-1 5 μmol/L cotreated with 0.22 μmol/L B1, HeLa
Method: Intracellular GSH levels were measured using a GSH assay kit.
(§3) After 24 h of treatment, cells were collected and washed twice with PBS for subsequent analysis. […] Subsequent procedures were performed strictly according to the manufacturer’s instructions of the respective kits: MDA assay kit (Servicebio, Cat# GM1134), Fe^2+ colorimetric assay kit (Servicebio, Cat# GM3052), and reduced GSH assay kit (Servicebio, Cat# GM1139).

[8] = test system: GPX4; experiment: Western blot, GPX4 expression in HeLa cells; conditions: Fer-1 5 μmol/L cotreated with B1, HeLa
[9] = test system: HeLa cells; experiment: Fe2+ assay kit; conditions: Fer-1 5 μmol/L cotreated with 0.22 μmol/L B1, HeLa
Method: Intracellular ferrous iron (Fe^2+) levels in HeLa cells were measured using an Fe^2+ assay kit.
as §3

[10] = CCK-8, 48 h, Table 1, read-out: IC50 HeLa
[11] = CCK-8, 48 h, normal cells, Table 1
[12] = Homo sapiens, HeLa, 48 h, read-out: IC50 HeLa
[13] = Homo sapiens, HeLa, CCK-8, 48 h, Table 1, read-out: IC50 HeLa
[14] = Homo sapiens, SiHa, CCK-8, 48 h, Table 1
[15] = Epithelial cell, CCK-8, 48 h, normal cells, Table 1
[16] = Homo sapiens, C-33-A, CCK-8, 48 h, Table 1

| SMILES | IC50 [1, 12] | IC50 ([2]; Homo sapiens, SiHa, 48 h) | IC50 ([3]; Epithelial cell, 48 h) | IC50 ([4]; Homo sapiens, C-33-A, 48 h) | other results |
| --- | --- | --- | --- | --- | --- |
| COc1ccc(C2=N[C@@H](c3ccc(Cl)cc3)[C@@H](c3ccc(Cl)cc3)N2C(=O)N2CCNC(=O)C2)c(OC(C)C)c1 [Nutlin-3a, reference compound] | – | – | – | – | IC50 [1, 10]: 61.3 ± 1.42 µM; IC50 ([2]; CCK-8, 48 h, Table 1): 56.6 ± 2.2 µM; IC50 [3, 11]: 45.5 ± 2.11 µM; IC50 ([4]; CCK-8, 48 h, Table 1): 57 ± 2.81 µM |
| COc1cccc(OC)c1C(=O)/C=C/c1ccc(N2CCCC2)cc1 [Compound A3] | 31.5 ± 1.46 µM | 64.44 ± 0.57 µM | > 100 µM | > 100 µM | – |
| O=C(/C=C/c1ccc(N2CCCC2)cc1)c1ccccc1C(F)(F)F [Compound A5] | 13.6 ± 0.26 µM | 38 ± 0.74 µM | 78.7 ± 1.41 µM | 36.69 ± 0.22 µM | – |
| CCOc1ccccc1-n1c(C(C)N2CCN(C(=O)COc3ccc(Cl)cc3)CC2)nc2ccccc2c1=O (stereo not shown) [Erastin, reference compound] | – | – | – | – | IC50 ([1]; Homo sapiens, HeLa, CCK-8, Table 3, ferroptosis inducer/inhibitor comparison, read-out: IC50 HeLa): 17.2 ± 0.53 µM |
| COc1ccccc1C(=O)/C=C/c1ccc(N2CCCC2)cc1 [Compound A1] | 3.04 ± 0.03 µM | 2.93 ± 0.21 µM | 61.3 ± 1.34 µM | 4.79 ± 0.19 µM | toxicity to H8 cells in words [3]: low toxicity |
| CCOC(=O)c1ccc(NC2CCCCC2)c(N)c1 [Ferrostatin-1, ferrostatin-1] | – | – | – | – | SLC7A11 protein expression level on cotreatment [5]: increased; MDA levels on cotreatment [6]: reduced; intracellular GSH levels on cotreatment [7]: increased; GPX4 protein expression level on cotreatment [8]: increased; Fe^2+ levels on cotreatment [9]: reduced |
| COc1ccccc1C(=O)/C(C)=C/c1ccc(N2CCCC2)cc1 [Compound B4] | – | – | – | – | IC50 [1, 13]: 84.8 ± 2.69 µM; IC50 [2, 14]: 44.7 ± 0.78 µM; IC50 [3, 15]: > 100 µM; IC50 [4, 16]: > 100 µM |
| COc1ccc(C(=O)/C=C/c2ccc(N3CCCC3)cc2)c(OC)c1 [Compound A2] | 16.7 ± 0.65 µM | 18.3 ± 0.73 µM | 74 ± 1.05 µM | 17.9 ± 0.55 µM | – |
| O=C(/C=C/c1ccc(N2CCCC2)cc1)c1cccc(C(F)(F)F)c1 [Compound A6] | 31.8 ± 1.45 µM | 34.5 ± 0.59 µM | 86.4 ± 3.17 µM | 35.1 ± 0.37 µM | IC50 ([1]; Homo sapiens, HeLa): > 100 µM |
| N.N.[Cl][Pt][Cl] [Cisplatin, reference compound] | – | – | – | – | IC50 [1, 10]: 18.23 ± 0.11 µM; IC50 ([2]; CCK-8, 48 h, Table 1): 37 ± 1.54 µM; IC50 [3, 11]: 25.6 ± 1.32 µM; IC50 ([4]; CCK-8, 48 h, Table 1): 12.7 ± 1.09 µM |
| O=C(/C=C/c1ccc(N2CCCC2)cc1)c1ccc(Cl)c(Cl)c1Cl [Compound A9] | – | – | – | – | IC50 [1, 13]: > 100 µM; IC50 [2, 14]: 90.5 ± 3.38 µM; IC50 [3, 15]: > 100 µM; IC50 [4, 16]: > 100 µM |
| Cc1cccc(C(=O)/C=C/c2ccc(N3CCCC3)cc2)c1 [Compound A7] | 27.6 ± 2.23 µM | 16.41 ± 0.13 µM | 91.6 ± 3.28 µM | 37.2 ± 0.19 µM | – |
| O=C(/C=C/c1ccc(N2CCCC2)cc1)c1ccc(C(F)(F)F)cc1 [Compound A8] | > 100 µM | > 100 µM | > 100 µM | > 100 µM | – |
| O=C(/C=C/c1ccccc1)c1ccccc1 [Chalcone, reference compound] | – | – | – | – | IC50 [1, 13]: 63.9 ± 2.85 µM; IC50 [2, 14]: 69.7 ± 1.67 µM; IC50 [3, 15]: 38.6 ± 1.64 µM; IC50 [4, 16]: 58.7 ± 1.05 µM |
| COc1ccc(C(=O)/C=C/c2ccc(N3CCCC3)cc2)c(OC)c1OC [Compound A4] | 15.7 ± 0.38 µM | 7.78 ± 0.24 µM | 81 ± 1.03 µM | 21.3 ± 1.02 µM | – |

More lines, main results first:

| IC50 [1, 12] | SMILES | IC50 ([2]; Homo sapiens, SiHa, 48 h) | IC50 ([3]; Epithelial cell, 48 h) | IC50 ([4]; Homo sapiens, C-33-A, 48 h) | other results |
| --- | --- | --- | --- | --- | --- |
| 27.1 ± 0.59 µM | O=C(/C=C/c1ccc(N2CCCC2)cc1)c1cc(F)ccc1F [Compound C2] | 26.4 ± 1.11 µM | 35.1 ± 0.95 µM | 44.1 ± 1.99 µM | IC50 ([1]; Homo sapiens, HeLa): 9.3 µM |
| 8.17 ± 0.46 µM | COc1ccc(Cl)cc1/C=C/C(=O)c1ccc(N2CCCC2)cc1 [Compound D3] | 10.9 ± 0.38 µM | 22.6 ± 0.32 µM | 34.2 ± 1.3 µM | – |
| 1.59 ± 0.08 µM | COc1ccc(Cl)cc1C(=O)/C=C/c1ccc(N2CCCC2)cc1 [Compound B3] | 2.17 ± 0.02 µM | 57 ± 2.47 µM | 4.29 ± 0.15 µM | – |
| > 100 µM | O=C(/C=C/c1ccc(N2CCCC2)cc1)c1cccc(OC(F)(F)F)c1 [Compound B6] | 49.5 ± 1.4 µM | > 100 µM | > 100 µM | – |
| 0.22 ± 0.01 µM | COc1ccc(F)cc1C(=O)/C=C/c1ccc(N2CCCC2)cc1 [Compound B1] | 0.24 ± 0.03 µM | 45.8 ± 1.61 µM | 0.95 ± 0.02 µM | IC50 ([1]; Homo sapiens, HeLa, read-out: IC50 HeLa): ~0.22 µM; IC50 ([2]; Homo sapiens, SiHa): ~0.24 µM; toxicity to H8 cells in words [3]: low toxicity |
| > 100 µM | O=C(/C=C/c1ccc(OC(F)(F)F)cc1)c1ccc(N2CCCC2)cc1 [Compound D6] | 77.3 ± 2.13 µM | > 100 µM | > 100 µM | – |
| 5.25 ± 0.1 µM | COc1ccc(F)cc1/C=C/C(=O)c1ccc(N2CCCC2)cc1 [Compound D1] | 5.44 ± 0.23 µM | 19.2 ± 1.08 µM | 20.9 ± 1.03 µM | – |
| 0.9 ± 0.02 µM | O=C(/C=C/c1ccc(N2CCCC2)cc1)c1ccccc1OC(F)(F)F [Compound B5] | 0.91 ± 0.03 µM | 76.9 ± 3.87 µM | 5.93 ± 0.07 µM | – |
| 10.8 ± 0.37 µM | COc1ccc(Br)cc1/C=C/C(=O)c1ccc(N2CCCC2)cc1 [Compound D2] | 11.55 ± 0.06 µM | 40 ± 0.55 µM | 49.8 ± 2.93 µM | – |
| 9.3 ± 0.57 µM | COc1ccc(OC)c(C(=O)/C=C/c2ccc(N3CCCC3)cc2)c1 [Compound C1] | 9.92 ± 0.67 µM | 27.2 ± 2.33 µM | 13.8 ± 0.45 µM | IC50 ([1]; Homo sapiens, HeLa): 27.1 µM |
| 1.09 ± 0.05 µM | COc1ccc(Br)cc1C(=O)/C=C/c1ccc(N2CCCC2)cc1 [Compound B2] | 1.35 ± 0.13 µM | 56.8 ± 0.75 µM | 4.4 ± 0.11 µM | – |
| 32 ± 1.28 µM | O=C(/C=C/c1cccc(OC(F)(F)F)c1)c1ccc(N2CCCC2)cc1 [Compound D5] | 44.4 ± 1.64 µM | > 100 µM | > 100 µM | – |
| > 100 µM | O=C(/C=C/c1ccc(N2CCCC2)cc1)c1ccc(OC(F)(F)F)cc1 [Compound B7] | > 100 µM | > 100 µM | > 100 µM | – |
| 4.09 ± 0.24 µM | O=C(/C=C/c1ccccc1OC(F)(F)F)c1ccc(N2CCCC2)cc1 [Compound D4] | 9.28 ± 0.33 µM | > 100 µM | 33 ± 2.38 µM | – |
